Measured values reported in patent publication US20240150362A1, “Substituted Pyrrolotriazines” (Molecure S.A., priority 2022, published 2024).
Where a name gives a salt, the structure may show the parent alone.

What follows are molecules tested against T1, full-length USP7 (Homo sapiens, UniProt Q93009) (assay: Enzymatic assay to determine IC50 of USP7 inhibitors (Ubiquitin-Rhodamine 110 cleavage)). Details: full-length USP7 0.5-1.0 nM, 0.5 μM Ubiquitin-Rhodamine 110, 30-60 min at 25° C.
T1 construct: A 45 μl reaction volume containing full-length USP7 (0.5-1.0 nM)
T1 sequence (Q93009 whole entry): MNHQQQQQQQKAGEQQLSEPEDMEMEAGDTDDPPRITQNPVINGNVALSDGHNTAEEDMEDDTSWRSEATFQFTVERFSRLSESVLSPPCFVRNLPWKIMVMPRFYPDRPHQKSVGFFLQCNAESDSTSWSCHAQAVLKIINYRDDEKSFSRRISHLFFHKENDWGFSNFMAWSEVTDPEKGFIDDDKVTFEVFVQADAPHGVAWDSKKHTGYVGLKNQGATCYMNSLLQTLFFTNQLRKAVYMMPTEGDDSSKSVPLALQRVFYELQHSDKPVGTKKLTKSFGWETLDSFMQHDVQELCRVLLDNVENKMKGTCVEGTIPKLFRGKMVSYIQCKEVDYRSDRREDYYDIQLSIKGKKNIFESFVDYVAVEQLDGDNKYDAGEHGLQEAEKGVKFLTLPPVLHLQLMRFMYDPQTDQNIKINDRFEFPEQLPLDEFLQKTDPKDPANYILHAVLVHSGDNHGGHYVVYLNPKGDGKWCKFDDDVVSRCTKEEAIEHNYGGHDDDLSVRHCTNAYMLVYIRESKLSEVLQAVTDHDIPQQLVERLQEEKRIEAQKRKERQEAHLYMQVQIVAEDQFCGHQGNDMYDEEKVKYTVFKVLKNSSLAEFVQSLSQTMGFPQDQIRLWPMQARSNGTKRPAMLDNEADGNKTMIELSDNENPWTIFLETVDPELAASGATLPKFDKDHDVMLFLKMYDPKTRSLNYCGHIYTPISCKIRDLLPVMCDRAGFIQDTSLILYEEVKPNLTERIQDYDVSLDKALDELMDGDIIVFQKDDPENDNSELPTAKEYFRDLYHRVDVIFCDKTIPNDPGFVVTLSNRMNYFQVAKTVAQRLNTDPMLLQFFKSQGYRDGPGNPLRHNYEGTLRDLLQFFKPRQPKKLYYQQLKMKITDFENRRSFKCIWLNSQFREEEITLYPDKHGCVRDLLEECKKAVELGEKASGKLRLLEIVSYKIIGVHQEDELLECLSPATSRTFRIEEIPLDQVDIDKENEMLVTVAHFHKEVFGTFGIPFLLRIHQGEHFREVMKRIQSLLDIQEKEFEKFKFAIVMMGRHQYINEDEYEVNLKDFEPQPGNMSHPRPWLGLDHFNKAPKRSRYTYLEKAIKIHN
Type: biochemical
Description: Enzymatic Assay to Determine IC50 of USP7 Inhibitors
The IC50 is the concentration of an inhibitor where the measured enzyme activity is reduced by half. In the case of USP7 deubiquitinase, the IC50 of an USP7 inhibitor is the molar concentration of the compound that inhibits 50% of the activity observed in a USP7-mediated-ubiquitin-rhodamine cleavage assay. For the inhibitors disclosed herein, their potency was measured using the following method.
A 45 μl reaction volume containing full-length USP7 (0.5-1.0 nM) in 50 mM HEPES pH 7.5, 150 mM NaCl, 2 mM DTT, 1 mg/ml BSA and 0.05% Tween20 was assembled in wells of 96 well half area black flat bottom plates. Test compounds were first dissolved to 30 mM stocks in DMSO and subsequently introduced to enzyme 15 min after USP7 incubation with DTT at room temperature. The enzymatic reaction was started by adding 0.5 μM Ubiquitin-Rhodamine 110 (final concentration) and allowed to proceed for 30-60 min at 25° C., 250 RPM shaking before Rhodamine fluorescence (485 nm excitation/535 nm emission) was measured using Tecan Spark M10 plate reader. The IC50 values were determined by data fitting to variable slope model four-parameter dose-response curve using GraphPad 7.05.
`CC1(C)C2C(=O)N(Cc3cc4c(-c5cc(Cl)cc6c5N(C5CCNC5)CCC6)ncnn4c3)C(=O)C21` (racemic) [Example 51, 3-((4-(6-chloro-1-(pyrrolidin-3-yl)-1,2,3,4-tetrahydroquinolin-8-yl)pyrrolo[2,1-f][1,2,4]triazin-6-yl)methyl)-6,6-dimethyl-3-azabicyclo[3.1.0]hexane-2,4-dione hydrochloride] gave an IC50 of under 500 nM. Molecule `Cc1cc(Cl)cc(-c2ncnn3cc(Cn4c(=O)ccn(C)c4=O)cc23)c1CC1CNCCO1` (racemic) [Example 60, 3-((4-(5-chloro-3-methyl-2-(morpholin-2-ylmethyl)phenyl)pyrrolo[2,1-f][1,2,4]triazin-6-yl)methyl)-1-methylpyrimidine-2,4(1H,3H)-dione hydrochloride] has an IC50 of under 500 nM. `Cc1cc(Cl)cc(-c2ncnn3cc(Cn4c(=O)ccn(CC(F)(F)F)c4=O)cc23)c1CC1CNCCO1` (racemic) [Example 68, 3-((4-(5-chloro-3-methyl-2-(morpholin-2-ylmethyl)phenyl)pyrrolo[2,1-f][1,2,4]triazin-6-yl)methyl)-1-(2,2,2-trifluoroethyl)pyrimidine-2,4(1H,3H)-dione hydrochloride] was tested, and the IC50 was under 500 nM. `CC1(C)C2C(=O)N(Cc3cc4c(-c5cc(Cl)cc6ccn(C[C@@H]7CNCCO7)c56)ncnn4c3)C(=O)C21` (single isomer, unassigned) [Example 30, dihydrochloride] gave an IC50 of under 500 nM. `Cc1cc(Cl)cc(-c2ncnn3cc(CN4C(=O)C5C(C4=O)C5(C)C)cc23)c1CC1CN[C@H](C)CO1` (single isomer, unassigned) [Example 41, hydrochloride] gave an IC50 of under 500 nM. `CC1(C)C2C(=O)N(Cc3cc4c(-c5cc(Cl)cc6c5N(C5CCNC5)CCC6)ncnn4c3)C(=O)C21` (single isomer, unassigned) [Example 66, 3-((4-(6-chloro-1-(pyrrolidin-3-yl)-1,2,3,4-tetrahydroquinolin-8-yl)pyrrolo[2,1-f][1,2,4]triazin-6-yl)methyl)-6,6-dimethyl-3-azabicyclo[3.1.0]hexane-2,4-dione hydrochloride] was tested, and the IC50 was under 500 nM. `CC1(C)C2C(=O)N(Cc3cc4c(-c5cc(Cl)cc6c5N(C5CCNC5)CCC6)ncnn4c3)C(=O)C21` (single isomer, unassigned) [Example 67, 3-((4-(6-chloro-1-(pyrrolidin-3-yl)-1,2,3,4-tetrahydroquinolin-8-yl)pyrrolo[2,1-f][1,2,4]triazin-6-yl)methyl)-6,6-dimethyl-3-azabicyclo[3.1.0]hexane-2,4-dione hydrochloride] was tested, and the IC50 was under 500 nM. Molecule `Cc1cc(Cl)cc(-c2ncnn3cc(Cn4c(=O)ccn(C)c4=O)cc23)c1C[C@@H]1CNCCO1` (single isomer, unassigned) [Example 82, hydrochloride] has an IC50 of under 500 nM. Molecule `Cc1cc(Cl)cc(-c2ncnn3cc(Cn4c(=O)ccn(CC(F)(F)F)c4=O)cc23)c1C[C@@H]1CNCCO1` (single isomer, unassigned) [Example 83, hydrochloride] has an IC50 of under 500 nM. In the case of `Cc1cc(Cl)cc(-c2ncnn3cc(Cn4c(=O)ccn(C(C)C)c4=O)cc23)c1C[C@@H]1CNCCO1` (single isomer, unassigned) [Example 89, hydrochloride], the IC50 is reported as under 500 nM. In the case of `CCn1ccc(=O)n(Cc2cc3c(-c4cc(Cl)cc(C)c4C[C@@H]4CNCCO4)ncnn3c2)c1=O` (single isomer, unassigned) [Example 104, hydrochloride], the IC50 is reported as under 500 nM. In the case of `[2H]C([2H])([2H])n1ccc(=O)n(Cc2cc3c(-c4cc(Cl)cc(C)c4C[C@@H]4CNCCO4)ncnn3c2)c1=O` (single isomer, unassigned) [Example 105, hydrochloride], the IC50 is reported as under 500 nM. Work on `Cc1cc(Cl)cc(-c2ncnn3cc(Cn4c(=O)ccn(C5CC5)c4=O)cc23)c1CC1CNC[C@H](C)O1` (single isomer, unassigned) [Example 106, hydrochloride] yielded an IC50 of under 500 nM. Molecule `Cc1cc(Cl)cc(-c2ncnn3cc(Cn4c(=O)ccn(C5CC5)c4=O)cc23)c1C[C@@H]1CNCCO1` (single isomer, unassigned) [Example 107, hydrochloride] has an IC50 of under 500 nM. In the case of `Cc1cc(Cl)cc(-c2ncnn3cc(Cn4c(=O)c(F)cn(C)c4=O)cc23)c1CC1CNC[C@H](C)O1` (single isomer, unassigned) [Example 108, hydrochloride], the IC50 is reported as under 500 nM. `Cc1cc(Cl)cc(-c2ncnn3cc(Cn4c(=O)ccn(C)c4=O)cc23)c1CC1CN[C@@H](C)CO1` (single isomer, unassigned) [Example 110, hydrochloride] gave an IC50 of under 500 nM. `Cc1cc(Cl)cc(-c2ncnn3cc(Cn4c(=O)ccn(C(C)C)c4=O)cc23)c1CC1CN[C@@H](C)CO1` (single isomer, unassigned) [Example 113, hydrochloride] gave an IC50 of under 500 nM. `CCn1ccc(=O)n(Cc2cc3c(-c4cc(Cl)cc(C)c4CC4CNC[C@H](C)O4)ncnn3c2)c1=O` (single isomer, unassigned) [Example 114, hydrochloride] gave an IC50 of under 500 nM. In the case of `Cc1cc(Cl)cc(-c2ncnn3cc(Cn4c(=O)c(C)cn(C)c4=O)cc23)c1CC1CNC[C@H](C)O1` (single isomer, unassigned) [Example 115, hydrochloride], the IC50 is reported as under 500 nM. Work on `Cc1cc(Cl)cc(-c2ncnn3cc(CN4C(=O)CN(C)CC4=O)cc23)c1CC1CNC[C@H](C)O1` (single isomer, unassigned) [Example 117, hydrochloride] yielded an IC50 of under 500 nM. Molecule `Cc1cc(Cl)cc(-c2ncnn3cc(Cn4c(=O)cc[nH]c4=O)cc23)c1C[C@@H]1CNCCO1` (single isomer, unassigned) [Example 124, hydrochloride] has an IC50 of under 500 nM. With `C[C@H]1CNCC(Cc2c(Cl)cc(Cl)cc2-c2ncnn3cc(Cn4c(=O)ccn(C)c4=O)cc23)O1` (single isomer, unassigned) [Example 126, hydrochloride] the IC50 was under 500 nM. Work on `Cc1cc(Cl)cc(-c2ncnn3cc(CN4C(=O)C5C(C4=O)C5(C)C)cc23)c1O[C@H]1CCCNC1` (stereo partly drawn) [Example 1, 3-((4-(5-chloro-3-methyl-2-(((S)-piperidin-3-yl)oxy)phenyl)pyrrolo[2,1-f][1,2,4]triazin-6-yl)methyl)-6,6-dimethyl-3-azabicyclo[3.1.0]hexane-2,4-dione hydrochloride] yielded an IC50 of under 500 nM. In the case of `Cc1cc(Cl)cc(-c2ncnn3cc(CN4C(=O)C5C(C4=O)C5(C)C)cc23)c1C[C@@H]1CNCCO1` (stereo partly drawn) [Example 2, 3-((4-(5-chloro-3-methyl-2-(((R)-morpholin-2-yl)methyl)phenyl)pyrrolo[2,1-f][1,2,4]triazin-6-yl)methyl)-6,6-dimethyl-3-azabicyclo[3.1.0]hexane-2,4-dione hydrochloride], the IC50 is reported as under 500 nM. `Cc1cc(Cl)cc(-c2ncnn3cc(CN4C(=O)C5C(C4=O)C5(C)C)cc23)c1CN1CCNC[C@@H]1C` (stereo partly drawn) [Example 6, 3-((4-(5-chloro-3-methyl-2-(((S)-2-methylpiperazin-1-yl)methyl)phenyl)pyrrolo[2,1-f][1,2,4]triazin-6-yl)methyl)-6,6-dimethyl-3-azabicyclo[3.1.0]hexane-2,4-dione hydrochloride] gave an IC50 of under 500 nM. In the case of `CC1(C)C2C(=O)N(Cc3cc4c(-c5cc(Cl)cc6ccn(CC7(F)CCNCC7)c56)ncnn4c3)C(=O)C21` (stereo not drawn) [Example 10, 3-((4-(5-chloro-1-((4-fluoropiperidin-4-yl)methyl)-1H-indol-7-yl)pyrrolo[2,1-f][1,2,4]triazin-6-yl)methyl)-6,6-dimethyl-3-azabicyclo[3.1.0]hexane-2,4-dione hydrochloride], the IC50 is reported as under 500 nM. `Cc1cc(Cl)cc(-c2ncnn3cc(CN4C(=O)C5C(C4=O)C5(C)C)cc23)c1CN1[C@@H](C)CNC[C@@H]1C` (stereo partly drawn) [Example 11, 3-((4-(5-chloro-2-(((2S,6S)-2,6-dimethylpiperazin-1-yl)methyl)-3-methylphenyl)pyrrolo[2,1-f][1,2,4]triazin-6-yl)methyl)-6,6-dimethyl-3-azabicyclo[3.1.0]hexane-2,4-dione dihydrochloride] was tested, and the IC50 was under 500 nM. With `Cc1cc(Cl)cc(-c2ncnn3cc(CN4C(=O)C5C(C4=O)C5(C)C)c(C)c23)c1C[C@@H]1CNCCO1` (stereo partly drawn) [Example 13, 3-((4-(5-chloro-3-methyl-2-(((R)-morpholin-2-yl)methyl)phenyl)-5-methylpyrrolo[2,1-f][1,2,4]triazin-6-yl)methyl)-6,6-dimethyl-3-azabicyclo[3.1.0]hexane-2,4-dione hydrochloride] the IC50 was 500 to 1000 nM. For `Cc1cc(Cl)cc(-c2ncnn3cc(CN4C(=O)C5C(C4=O)C5(C)C)cc23)c1O[C@@H]1CNC[C@@H]1F` (stereo partly drawn) [Example 14, 3-((4-(5-chloro-2-(((3R,4S)-4-fluoropyrrolidin-3-yl)oxy)-3-methylphenyl)pyrrolo[2,1-f][1,2,4]triazin-6-yl)methyl)-6,6-dimethyl-3-azabicyclo[3.1.0]hexane-2,4-dione hydrochloride], the IC50 was under 500 nM. Molecule `CC1(C)C2C(=O)N(Cc3cc4c(-c5cc(C(F)(F)F)cc6ccn(CC7(F)CCNCC7)c56)ncnn4c3)C(=O)C21` (stereo not drawn) [Example 22, 3-((4-(1-((4-fluoropiperidin-4-yl)methyl)-5-(trifluoromethyl)-1H-indol-7-yl)pyrrolo[2,1-f][1,2,4]triazin-6-yl)methyl)-6,6-dimethyl-3-azabicyclo[3.1.0]hexane-2,4-dione hydrochloride] has an IC50 of under 500 nM.
